Data as given in patent US7473790B2 (Pfizer Inc., priority 2003, dated 2009).

Target: T1, HCV polymerase (Hepatitis C virus genotype 1b, UniProt P26663)
T1 construct: 2.5 pmoles (0.15 μg) HCV polymerase protein in a final volume of 75 μL
Experiment: HCV polymerase primer/template-directed transcription assay (32P-GTP incorporation, filter binding)
Format: biochemical
Conditions: recombinant HCV polymerase; 30 minutes at 30° C.; concentration giving 50% inhibition of polymerase-directed transcription; read-out: IC50
Procedure: The compounds described herein were tested for activity with HCV polymerase. Recombinant HCV polymerase was tested for its ability to perform primer/template-directed transcription in assays that contained 30 mM tris-HCl pH 7.2, 10 mM MgCl2, 20 mM NaCl, 1 mM Dithiothreitol (DTT), 0.05% Tween-20, 1% glycerol, 5 pmoles biotin-dG12 (primer), 0.5 pmoles poly(rC)300 (template), 1 μM GTP, 0.1-0.3 uCi α-^32P-GTP, and 2.5 pmoles (0.15 μg) HCV polymerase protein in a final volume of 75 μL. Reactions were initiated by addition of enzyme and incubated 30 minutes at 30° C. Reactions were stopped by addition of 33 mM EDTA, and polynucleotide products were collected by filtration through Diethylaminoethyl (DE) Filtermat papers (Wallac). Unincorporated triphosphate was removed by washing the filters with 5% dibasic sodium phosphate. The filters were counted in a Packard Tri-Lux Microbeta scintillation counter (Packard Bioscience, Meriden, Conn.). Compounds to be tested were added at various concentrations, e.g., 1 μm to 50 μm, from stocks in 10% DMSO-water (final DMSO is 1% in reaction).
IC50 values were estimated from the primary cpm data (collected in triplicate) using the formula: cpm (I)=cpm(no inhibitor)(1−([I]/([I]+IC50))). An IC50 value represents the concentration (in μM) of a compound that provides 50% inhibition of polymerase-directed transcription in the above assay. A percent inhibition value is expressed for a compound where it was impractical to calculate an IC50 value with available data. If the IC50 estimated by the above equation was less than 200 nM, it was recalculated using the following equation, which takes into account the enzyme concentration (30 nM) in the assay: cpm(I)=cpm(no inhibitor)(1−((((I+IC50+30e−9)−sqrt(((I+IC50+30e−9)^2)−4×30e−9×I)))/((2)(30e−9))). Curve fitting was performed using the program KaleidaGraph (Synergy Software, Reading, Pa.).

T1 sequence (P26663 2420-3010): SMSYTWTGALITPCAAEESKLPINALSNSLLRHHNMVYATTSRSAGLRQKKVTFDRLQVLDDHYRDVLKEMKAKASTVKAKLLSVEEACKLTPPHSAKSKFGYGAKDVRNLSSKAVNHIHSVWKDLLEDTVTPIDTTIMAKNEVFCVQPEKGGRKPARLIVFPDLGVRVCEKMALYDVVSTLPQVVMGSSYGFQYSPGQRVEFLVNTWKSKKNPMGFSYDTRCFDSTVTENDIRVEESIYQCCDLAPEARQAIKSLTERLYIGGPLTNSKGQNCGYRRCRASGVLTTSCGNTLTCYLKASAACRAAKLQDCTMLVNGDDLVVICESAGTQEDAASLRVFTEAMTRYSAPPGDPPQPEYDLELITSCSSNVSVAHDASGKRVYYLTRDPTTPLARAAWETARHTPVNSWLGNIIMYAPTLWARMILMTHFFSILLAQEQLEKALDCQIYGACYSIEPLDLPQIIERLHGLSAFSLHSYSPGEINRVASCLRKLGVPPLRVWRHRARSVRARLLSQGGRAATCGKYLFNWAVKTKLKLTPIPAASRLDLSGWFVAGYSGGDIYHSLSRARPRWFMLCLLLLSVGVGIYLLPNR

SMILES	IC50
CCc1ccc(O)c(CCC2(C3CCCC3)CC(O)=C(Cc3nc4ncc(C)cn4n3)C(=O)O2)c1 (single isomer, unassigned; enantiomer 1) [A(174), Enantiomer 1 of 6-Cyclopentyl-6-[2-(5-ethyl-2-hydroxy-phenyl)-ethyl]-4-hydroxy-3-(6-methyl-[1,2,4]triazolo[1,5-a]pyrimidin-2-ylmethyl)-5,6-dihydro-pyran-2-one]	6 nM
CCc1ccc(O)c(CCC2(C3CCCC3)CC(O)=C(Cc3nc4nc(C)cc(C)n4n3)C(=O)O2)c1 (single isomer, unassigned; enantiomer 2) [A(168), Enantiomer 2 of 6-Cyclopentyl-3-(5,7-dimethyl-[1,2,4]triazolo[1,5-a]pyrimidin-2-ylmethyl)-6-[2-(5-ethyl-2-hydroxy-phenyl)-ethyl]-4-hydroxy-5,6-dihydro-pyran-2-one]	9 nM
CCc1ccc(O)c(CCC2(C3CCCC3)CC(O)=C(Cc3nc4ncc(Cl)cn4n3)C(=O)O2)c1 (single isomer, unassigned; enantiomer 2) [A(172), Enantiomer 2 of 3-(6-Chloro-[1,2,4]triazolo[1,5-a]pyrimidin-2-ylmethyl)-6-cyclopentyl-6-[2-(5-ethyl-2-hydroxy-phenyl)-ethyl]-4-hydroxy-5,6-dihydro-pyran-2-one]	6 nM
CCc1ccc(O)c(CCC2(C3CCCC3)CC(O)=C(Cc3nc4ncc(C)cn4n3)C(=O)O2)c1 (single isomer, unassigned; enantiomer 2) [A(175), Enantiomer 2 of 6-Cyclopentyl-6-[2-(5-ethyl-2-hydroxy-phenyl)-ethyl]-4-hydroxy-3-(6-methyl-[1,2,4]triazolo[1,5-a]pyrimidin-2-ylmethyl)-5,6-dihydro-pyran-2-one]	9 nM
Cc1cc(C)n2nc(CC3=C(O)CC(CCc4ccc(C(C)(C)O)c(F)c4)(C4CCCC4)OC3=O)nc2n1 (single isomer, unassigned; enantiomer a) [A(218), 6-cyclopentyl-3-[(5,7-dimethyl[1,2,4]triazolo[1,5-a]pyrimidin-2-yl)methyl]-6-{2-[3-fluoro-4-(1-hydroxy-1-methylethyl)phenyl]ethyl}-4-hydroxy-5,6-dihydro-2H-pyran-2-one (enantiomer A)]	61 nM
Cc1cc(C)n2nc(CC3=C(O)CC(CCc4ccc(C(C)(C)O)c(F)c4)(C4CCCC4)OC3=O)nc2n1 (single isomer, unassigned; enantiomer b) [A(219), 6-cyclopentyl-3-[(5,7-dimethyl[1,2,4]triazolo[1,5-a]pyrimidin-2-yl)methyl]-6-{2-[3-fluoro-4-(1-hydroxy-1-methylethyl)phenyl]ethyl}-4-hydroxy-5,6-dihydro-2H-pyran-2-one (enantiomer B)]	88 nM
Cc1cc(C)n2nc(CC3=C(O)CC(CCc4ccc([C@@H](C)O)c(F)c4)(C4CCCC4)OC3=O)nc2n1 (stereo in doubt) [B(114), 6-Cyclopentyl-3-(5,7-dimethyl-[1,2,4]triazolo[1,5-a]pyrimidin-2-ylmethyl)-6-{2-[3-fluoro-4-(1-hydroxy-ethyl)-phenyl]-ethyl}-4-hydroxy-5,6-dihydro-pyran-2-one]	16 nM
C[C@@H](O)c1ccc(CCC2(C3CCCC3)CC(O)=C(Cc3nc4ncc(Cl)cn4n3)C(=O)O2)cc1F (stereo in doubt) [B(116), 3-(6-Chloro-[1,2,4]triazolo[1,5-a]pyrimidin-2-ylmethyl)-6-cyclopentyl-6-{2-[3-fluoro-4-(1-hydroxy-ethyl)-phenyl]-ethyl}-4-hydroxy-5,6-dihydro-pyran-2-one]	11 nM
COc1ccc(CCC2(C3CCCC3)CC(O)=C(Cc3nc4nc(C)cc(C)n4n3)C(=O)O2)cc1[C@@H](C)O (stereo in doubt) [B(120), 6-Cyclopentyl-3-(5,7-dimethyl-[1,2,4]triazolo[1,5-a]pyrimidin-2-ylmethyl)-4-hydroxy-6-{2-[3-(1-hydroxy-ethyl)-4-methoxy-phenyl]-ethyl}-5,6-dihydro-pyran-2-one]	12 nM
